Test results: patent US20150119400A1, “METHODS FOR TREATING HCV” (priority 2013, published 2015)
Where two headings read alike, the source gives them in different places.

Legend:
HCV genotype 6a replicon = assay: HCV subgenomic stable replicon cell culture assay (luciferase), genotype 6a; assay type: cell-based; conditions: Hepatitis C virus; bound stated in description, plasma not stated; read-out: EC50 value against HCV genotype 6a
[1] = test system: HCV stable subgenomic replicons containing NS3 genes from GT 1a, 1b, 2a, 3a, 4a, or 6a; assay: HCV stable subgenomic replicon panel, summary statements over several genotypes; assay type: cell-based; conditions: Hepatitis C virus
[2] = test system: GT1a subgenomic replicon NS3 variants; assay: Resistant colony selection and variant susceptibility, GT1a subgenomic replicon cells; assay type: cell-based, Hepatitis C virus; conditions: A156T in GT1a
From the text: (§1) The inhibitory effects of the compounds of the invention on HCV replication can also be determined by measuring activity of the luciferase reporter gene encoded by subgenomic replicons not containing the Neo selectable marker, that are transiently expressed in cells. The adaptive mutations encoded by the 1a-H77, 1b-N and 1b-Con-1 replicons are the same as listed above. The 1b-Con1 replicon used for these transient assays contains the NS2-NS5B coding region rather than the NS3-5B coding region. These replicons may encode target NS3 genes as described for stable subgenomic replicons or they may encode amino acid variants that confer varying degrees of susceptibility to the drug. For example, variants could include R155K, D168E or D168V in a genotype 1a NS3 gene; R155K or D168V in a genotype 1b NS3 gene; S138T, A166T or Q168R in a genotype 3a NS3 gene. For example, cells can be transfected with the replicon by electroporation and seeded into 96 well plates at a density of 5000 cells per well in 100 μl DMEM containing 5% FBS. […] Luciferin solution (100 μl, Promega) can be added to each well, and luciferase activity can be measured with a luminometer. The percent inhibition of HCV RNA replication can be calculated for each compound concentration and the EC50 value can be calculated using nonlinear regression curve fitting to the 4-parameter logistic equation and GraphPad Prism 4 software. […]

[3] = test system: GT1b subgenomic replicon NS3 variants; assay: Resistant colony selection and variant susceptibility, GT1b subgenomic replicon cells; assay type: cell-based, Hepatitis C virus; conditions: A156V in GT1b
From the text: as §1

[4] = test system: replicon containing GT3a NS3 protease, variants; assay: Resistant colony selection and variant susceptibility, replicon containing GT3a NS3 protease; assay type: cell-based, Hepatitis C virus
From the text: The inhibitory effects of the compounds of the invention on HCV replication can also be determined by measuring activity of the luciferase reporter gene encoded by subgenomic replicons not containing the Neo selectable marker, that are transiently expressed in cells. The adaptive mutations encoded by the 1a-H77, 1b-N and 1b-Con-1 replicons are the same as listed above. The 1b-Con1 replicon used for these transient assays contains the NS2-NS5B coding region rather than the NS3-5B coding region. These replicons may encode target NS3 genes as described for stable subgenomic replicons or they may encode amino acid variants that confer varying degrees of susceptibility to the drug. For example, variants could include R155K, D168E or D168V in a genotype 1a NS3 gene; R155K or D168V in a genotype 1b NS3 gene; S138T, A166T or Q168R in a genotype 3a NS3 gene. For example, cells can be transfected with the replicon by electroporation and seeded into 96 well plates at a density of 5000 cells per well in 100 μl DMEM containing 5% FBS. Compounds diluted in dimethyl sulfoxide (DMSO) to generate a 200× stock in a series of eight half-log dilutions can then be further diluted 100-fold in the medium containing 5% FBS and added to the cell culture plates already containing 100 μl of DMEM with 5% FBS. After an incubation period of either 3 or 4 days, 30 μl of Passive Lysis buffer (Promega) can be added to each well, with incubation for 15 minutes with rocking to lyse the cells. Luciferin solution (100 μl, Promega) can be added to each well, and luciferase activity can be measured with a luminometer. The percent inhibition of HCV RNA replication can be calculated for each compound concentration and the EC50 value can be calculated using nonlinear regression curve fitting to the 4-parameter logistic equation and GraphPad Prism 4 software.
Resistant colony selection studies in GT1a and 1b subgenomic replicon cells identified A156T in GT1a and A156V in GT1b as the most frequent variants, which conferred 1400- and 1800-fold reduced susceptibility to Compound 1, respectively. […]

`CC(C)(C)[C@@H]1NC(=O)O[C@@H]2CCC[C@H]2OC/C=C/C(F)(F)c2nc3ccccc3nc2O[C@@H]2C[C@@H](C(=O)N[C@]3(C(=O)NS(=O)(=O)C4(C)CC4)C[C@H]3C(F)F)N(C2)C1=O` [Compound 1] showed an EC50 (HCV genotype 6a replicon) of under 1 nM, an EC50 ([1]; bound stated for all six genotypes, read-out: EC50 value against HCV genotype 1a, 1b, 2a, 3a, 4a, and 6a) of under 3 nM and an EC50 ([1]; genotype 1a and 1b, 0% Human Plasma, 5% FBS, read-out: mean EC50 values, range over genotype 1a and 1b replicons) of 0.85 to 0.94 nM. For the same molecule, the EC50 ([1]; genotype 1a and 1b, 40% Human Plasma, 5% FBS, read-out: mean EC50 values, range over genotype 1a and 1b replicons) was 5 to 10 nM, the EC50 ([1]; genotype 2a, 3a, 4a, 6a, 0% Human Plasma, 5% FBS, read-out: mean EC50 values, range over genotype 2a, 3a, 4a, and 6a replicons) was 0.86 to 2.8 nM and the “fold reduced susceptibility conferred by variant” value [2] was 1400 fold. The “fold reduced susceptibility conferred by variant” value [3] was 1800 fold, the “fold loss in susceptibility conferred by variant” value ([4]; A156G alone) was 1500 fold and the “fold loss in susceptibility conferred by variant” value ([4]; Q168R co-selected with Y56H) was 1100 fold. The resistant colonies selected ([4]; concentrations ≧100-fold over its EC50 value) was “very few colonies”.
